The structures appear in SMILES notation.

Test [1] deals with T1, Bromodomain-containing protein 4 (Homo sapiens, UniProt O60885). In words: Inhibition of N-terminal GST-tagged/C-terminal 6His-tagged BRD4 BD1 (47 to 170 residues) (unknown origin) expressed in Escherichia coli BL21 (DE3) using SGRGK(Ac)GGK(Ac)GLGK(Ac) GGAK(Ac)RHRK-biotinylated peptide as substrate incubated for 60 mins by alpha screen assay. Background: Bead proximity is the source of the signal in Alpha formats.

Test [2] addresses T1, Bromodomain-containing protein 4. The experiment in a line: Inhibition of BRD4 BD2 (unknown origin) using SGRGK(Ac)GGK(Ac)GLGK(Ac) GGAK(Ac)RHRK-biotinylated peptide as substrate incubated for 60 mins by alpha screen assay.

`COC(=O)NS(=O)(=O)Nc1ccc(NC(C)C)nc1Nc1ccc2[nH]nnc2c1`: the half-inhibitory concentration (IC50) (in general, the concentration that inhibits the measured activity by half) in test [1] is 1.18 µM; in test [2], 1.06 µM.
For the compound `CC(C)Nc1ccc(NS(=O)(=O)C2CC2)c(Nc2ccc3[nH]nnc3c2)n1`, the IC50 in test [1] came out at 1.83 µM; in test [2], 1.8 µM.
For `C[C@H](Nc1ccc(NS(=O)(=O)N(C)C)c(Nc2ccc3[nH]nnc3c2)n1)[C@@H](c1ccccc1)N(C)C`, in that order: 3.22 µM and 6.9 µM.
Taken in the same sequence, the figures for `CC(C)Nc1ccc([N+](=O)[O-])c(Nc2ccc3c(c2)nnn3S(=O)(=O)c2ccc(F)cc2)n1` were 3.87 µM and 6.17 µM.
As for `CC(C)Nc1ccc(NC(=O)Nc2ccccc2)c(Nc2ccc3[nH]nnc3c2)n1`, the IC50 turned out to be 6.89 µM in test [1] and 10.2 µM in test [2].
Regarding `CC(C)Nc1ccc(NS(=O)(=O)c2ccccc2)c(Nc2ccc3[nH]nnc3c2)n1`, the results for the IC50 in test [1] and in test [2] were 0.51 µM and 0.64 µM, respectively.
For `CC(C)Nc1ccc([N+](=O)[O-])c(Nc2ccc3[nH]nnc3c2)n1`, the IC50 in test [1] was found to be 9.8 µM; in test [2], 10 µM.
Taken in the same sequence, the figures for `CC(C)Nc1ccc(NS(=O)(=O)c2ccccc2C(F)(F)F)c(Nc2ccc3[nH]nnc3c2)n1` were 1.61 µM and 1.57 µM.
For `CC(C)Nc1ccc(NS(=O)(=O)c2c(F)cccc2F)c(Nc2ccc3[nH]nnc3c2)n1`, in that order: 0.78 µM and 1.04 µM.
Consider `CC(C)Nc1ccc([N+](=O)[O-])c(Nc2ccc3c(c2)nnn3C(=O)c2ccccc2)n1`, for which the IC50 came to 4.27 µM in test [1] and 10.2 µM in test [2].
Taken in the same sequence, the figures for `CN(C)S(=O)(=O)Nc1ccc(NCCCN2CCOCC2)nc1Nc1ccc2[nH]nnc2c1` were 5.41 µM and 15 µM.
Consider `CN(C)S(=O)(=O)Nc1ccc(N2CCOCC2)nc1Nc1ccc2[nH]nnc2c1`, for which the IC50 worked out at 4.6 µM in test [1] and 5.82 µM in test [2].
On to `CN(C)S(=O)(=O)Nc1ccc(NCC2CC2)nc1Nc1ccc2[nH]nnc2c1`, for which the IC50 in test [1] is 4.45 µM; in test [2] it was 5.63 µM.
Taken in the same sequence, the figures for `CC(C)Nc1ccc([N+](=O)[O-])c(Nc2ccc3c(c2)nnn3C(=O)Nc2ccccc2)n1` were 5.13 µM and 5.84 µM.
With `CN(C)S(=O)(=O)Nc1ccc(NCCO)nc1Nc1ccc2[nH]nnc2c1`, the IC50 was 5.7 µM in test [1] and 8.25 µM in test [2].
In test [1], `CN(C)S(=O)(=O)Nc1ccc(NCc2cccc3ccccc23)nc1Nc1ccc2[nH]nnc2c1` showed an IC50 of 7.91 µM. This lies in the single-digit micromolar range.
For `CC(C)Nc1ccc(NS(C)(=O)=O)c(Nc2ccc3[nH]nnc3c2)n1`, the IC50 stood at 2.47 µM in test [1] and 2.86 µM in test [2].
Regarding `CC(C)Nc1ccc(NS(=O)(=O)C(C)C)c(Nc2ccc3[nH]nnc3c2)n1`, the IC50 in test [1] came to 1.12 µM; in test [2] it was 1.24 µM.
Consider `CN(C)S(=O)(=O)Nc1ccc(NCCc2ccccc2)nc1Nc1ccc2[nH]nnc2c1`, for which the IC50 in test [1] was found to be 5.25 µM.
For the compound `CC(C)Nc1ccc(NS(=O)(=O)c2ccc(F)cc2)c(Nc2ccc3[nH]nnc3c2)n1`, the IC50 in test [1] is 0.24 µM; in test [2], 0.3 µM.
Take `CN(C)S(=O)(=O)Nc1ccc(NCc2ccccc2)nc1Nc1ccc2[nH]nnc2c1`: the IC50 in test [1] is 2.23 µM.
In the case of `CC(C)Nc1ccc(NS(=O)(=O)N(C)C)c(Nc2ccc3[nH]nnc3c2)n1`, the results for the IC50 in test [1] and in test [2] were 1.69 µM and 2.05 µM, respectively.
Regarding `CCCS(=O)(=O)Nc1ccc(NC(C)C)nc1Nc1ccc2[nH]nnc2c1`, the IC50 in test [1] is 3.23 µM; in test [2] it was 3.02 µM.
With `CN(C)S(=O)(=O)Nc1ccc(N2CCS(=O)(=O)CC2)nc1Nc1ccc2[nH]nnc2c1`, the IC50 in test [1] turned out to be 20.1 µM; in test [2], 10.4 µM.
As to `CC(C)Nc1ccc(NS(=O)(=O)c2c(F)cc(F)cc2F)c(Nc2ccc3[nH]nnc3c2)n1`, the IC50 in test [1] was determined as 0.62 µM; in test [2] it was 0.9 µM.
`CN(C)S(=O)(=O)Nc1ccc(NCc2ccc(F)cc2)nc1Nc1ccc2[nH]nnc2c1`: 5.24 µM corresponded to half-maximal inhibition in test [1] (IC50).
On to `CCS(=O)(=O)Nc1ccc(NC(C)C)nc1Nc1ccc2[nH]nnc2c1`, for which the IC50 in test [1] amounted to 3.86 µM; in test [2], 4.47 µM.
For `CC(C)Nc1ccc(NC(=O)c2ccccc2)c(Nc2ccc3[nH]nnc3c2)n1`, in that order: 3.98 µM and 12.3 µM.
Compound `CN(C)S(=O)(=O)Nc1ccc(NCC(c2ccccc2)c2ccccc2)nc1Nc1ccc2[nH]nnc2c1` came in with an IC50 in test [1] of 8.83 µM.
With `CN(C)S(=O)(=O)Nc1ccc(NCCN2CCOCC2)nc1Nc1ccc2[nH]nnc2c1`, the IC50 in test [1] was 7.97 µM; in test [2] it was 11.5 µM.
`CC(C)Nc1ccc([N+](=O)[O-])c(Nc2ccc3c(c2)nnn3C)n1`: the IC50 came to 4.22 µM in test [1] and 10.3 µM in test [2].
As for `CC(C)Nc1ccc(NS(=O)(=O)c2ccccc2F)c(Nc2ccc3[nH]nnc3c2)n1`, the results for the IC50 in test [1] and in test [2] were 1.42 µM and 1.66 µM, respectively.
Taken in the same sequence, the figures for `CC(C)Nc1ccc(NS(=O)(=O)c2cccs2)c(Nc2ccc3[nH]nnc3c2)n1` were 0.77 µM and 0.78 µM.
With `CC(C)Nc1ccc([N+](=O)[O-])c(Nc2ccc3c(c2)nnn3S(=O)(=O)c2ccccc2)n1`, the IC50 in test [1] is 3.1 µM; in test [2] it was 4.47 µM.
Compound `CN(C)S(=O)(=O)Nc1ccc(NCc2ccc3c(c2)OCO3)nc1Nc1ccc2[nH]nnc2c1` gave an IC50 in test [1] of 7.7 µM.
With `CN(C)S(=O)(=O)Nc1ccc(NCc2ccco2)nc1Nc1ccc2[nH]nnc2c1`, the IC50 is 6.22 µM in test [1] and 23 µM in test [2].
Regarding `CN(C)S(=O)(=O)Nc1ccc(NCCc2c[nH]c3ccccc23)nc1Nc1ccc2[nH]nnc2c1`, the IC50 in test [1] amounted to 3.62 µM.
For `CC(C)Nc1ccc(NS(=O)(=O)C2CCCCC2)c(Nc2ccc3[nH]nnc3c2)n1`, the IC50 in test [1] turned out to be 0.66 µM; in test [2] it was 0.9 µM.
For `CN(C)S(=O)(=O)Nc1ccc(NC2COC2)nc1Nc1ccc2[nH]nnc2c1`, the IC50 is 6.85 µM in test [1] and 9.95 µM in test [2].
Taken in the same sequence, the figures for `CN(C)S(=O)(=O)Nc1ccc(NCC2CCCO2)nc1Nc1ccc2[nH]nnc2c1` (stereo not drawn) were 9.6 µM and 8.42 µM.
Turning to `CC(C)Nc1ccc(NS(=O)(=O)c2cccnc2)c(Nc2ccc3[nH]nnc3c2)n1`, the IC50 in test [1] was found to be 0.83 µM; in test [2], 0.8 µM.
On to `CN(C)S(=O)(=O)Nc1ccc(NCc2ccc(F)cc2F)nc1Nc1ccc2[nH]nnc2c1`, for which the IC50 in test [1] worked out at 7.64 µM; in test [2] it was 11.3 µM.
Consider `CN(C)S(=O)(=O)Nc1ccc(NCC(O)c2ccccc2)nc1Nc1ccc2[nH]nnc2c1` (stereo not drawn), for which the IC50 worked out at 5.59 µM in test [1] and 5.11 µM in test [2].
Turning to `CC(C)Nc1ccc(NS(=O)(=O)c2ccc(F)cc2F)c(Nc2ccc3[nH]nnc3c2)n1`, the IC50 in test [1] is 0.8 µM; in test [2] it was 0.72 µM.
Regarding `CN(C)S(=O)(=O)Nc1ccc(N2C3CCC2COC3)nc1Nc1ccc2[nH]nnc2c1`, the IC50 in test [1] came out at 4.45 µM; in test [2], 4.38 µM.

Source of the values: ChEMBL document CHEMBL5360526, “Discovery of BET specific bromodomain inhibitors with a novel scaffold” (Bioorg Med Chem, 2022).
